Like-named read-outs stand apart in the source and are kept apart here.
How the values were obtained:
[1] = Susceptibility to enzymatic degradation to the benzoic acid derivative; assay type: in vitro ADME
mice = conditions: mouse, in vivo; cited from earlier work
[2] = system: reproductive organs of male rats; conditions: rat, in vivo; cited from earlier work
[3] = system: reproductive organs of dogs; conditions: dog, in vivo; cited from earlier work
primates = conditions: cited from earlier work
[4] = rats; cited from earlier work
[5] = dogs; cited from earlier work
guinea-pigs = conditions: guinea pig, in vivo; cited from earlier work
glucose synthesis = conditions: in vitro; cited from earlier work
fatty acid synthesis = conditions: in vitro; cited from earlier work
male rats = conditions: cited from earlier work

## Cc1cc(CC(C)C)ccc1CCC=O [(I), 3-(4-Isobutyl-2-methylphenyl)propanal]
[1]
  enzymatic degradation to its benzoic acid derivative: not susceptible

## CC(C=O)Cc1ccc(C(C)(C)C)cc1 (centres unmarked) [Lilial, 3-(4-tert-butylphenyl)-2-methylpropanal]
mice
  toxic effects: No effects
[2]
  toxic effects on the reproductive organs: toxic effects
[3]
  toxic effects on the reproductive organs: toxic effects
primates
  toxic effects: No effects
[4]
  enzymatic degradation to tert-butyl benzoic acid (t-BBA): enzymatically degraded
[5]
  enzymatic degradation to tert-butyl benzoic acid (t-BBA): enzymatically degraded
guinea-pigs
  toxic effects: No effects

## CC(C)(C)c1ccc(C(=O)O)cc1 [tert-butyl benzoic acid]
Glucose synthesis
  inhibition of glucose synthesis: inhibit
Fatty acid synthesis
  inhibition of fatty acid synthesis: inhibit
Male rats
  testicular effects: testicular effects

Source: patent US20180282662A1, “Process” (GIVAUDAN SA, priority 2014, published 2018)
